Source: ChEMBL document CHEMBL3885861, “Open TG-GATES”

Species on record: Rattus norvegicus
Experiment: Open TG-GATES - Regimen: Single
Assay type: toxicity, organism-based, Sprague-Dawley
Set-up: regimen Single, gender Male, age 6 weeks
Settings: in vivo, po, route gavage; for TC / TG / TP / gamma-GTP / ALT / AST / CRE / Ca / DBIL / GLC / K / LDH / Na / PL / RALB / TBIL / Cl / ALP: tissue Plasma; for Bas / Eos / Fbg / Hb / Ht / Lym / MCHC / MCV / Mono / PT / Plat / RBC / WBC / APTT: tissue Blood; for KIDNEY_L / KIDNEY_R / KIDNEY_TOTAL: tissue Kidney; for LIVER: tissue Liver
[1] = 240 mg/kg, 3 h, dose level Middle
[2] = 240 mg/kg, 6 h, dose level Middle
[3] = 240 mg/kg, 9 h, dose level Middle
[4] = 240 mg/kg, 24 h, dose level Middle
[5] = 800 mg/kg, 3 h, dose level High
[6] = 800 mg/kg, 6 h, dose level High
[7] = 800 mg/kg, 9 h, dose level High
[8] = 800 mg/kg, 24 h, dose level High

Compound: COc1ccc([C@@H]2Sc3ccccc3N(CCN(C)C)C(=O)[C@@H]2OC(C)=O)cc1 [DILTIAZEM]
- TC (80 mg/kg, 24 h, dose level Low): 78.2 mg/dL
- TG (80 mg/kg, 24 h, dose level Low): 67.8 mg/dL
- TP (80 mg/kg, 24 h, dose level Low): 5.5 g/dL
- gamma-GTP (80 mg/kg, 24 h, dose level Low): 1 IU/L
- TERMINAL_BW [1]: 186.7 g
- Bas [1]: 0%
- Eos [1]: 0.8%
- Fbg [1]: 284.8 mg/dL
- Hb [1]: 12.6 g/dL
- Ht [1]: 38.9%
- Lym [1]: 75%
- MCHC [1]: 32.3%
- MCV [1]: 65.9 fL
- Mono [1]: 3.2%
- PT [1]: 14.7 s
- Plat [1]: 119.4 x10_4/uL
- RBC [1]: 588.8 x10_4/ul
- WBC [1]: 87.8 x10_2/uL
- KIDNEY_L [1]: 0.9 g
- KIDNEY_R [1]: 0.9 g
- KIDNEY_TOTAL [1]: 1.7 g
- LIVER [1]: 8.4 g
- ALT [1]: 45.2 IU/L
- AST [1]: 84 IU/L
- CRE [1]: 0.2 mg/dL
- Ca [1]: 10.8 mg/dL
- DBIL [1]: 0.012 mg/dL
- GLC [1]: 186.4 mg/dL
- K [1]: 4.4 meq/L
- LDH [1]: 70.4 IU/L
- Na [1]: 142 meq/L
- PL [1]: 136.8 mg/dL
- RALB [1]: 2.5 g/dL
- TBIL [1]: 0.03 mg/dL
- TC [1]: 75 mg/dL
- TG [1]: 58 mg/dL
- TP [1]: 5.2 g/dL
- gamma-GTP [1]: 1 IU/L
- TERMINAL_BW [2]: 187.5 g
- Bas [2]: 0%
- Eos [2]: 0.8%
- Fbg [2]: 303.8 mg/dL
- Ht [2]: 40.7%
- Lym [2]: 80%
- MCHC [2]: 32%
- MCV [2]: 67.1 fL
- Mono [2]: 3%
- PT [2]: 14.7 s
- Plat [2]: 120.8 x10_4/uL
- RBC [2]: 608.2 x10_4/ul
- WBC [2]: 79.2 x10_2/uL
- KIDNEY_L [2]: 0.9 g
- KIDNEY_R [2]: 0.8 g
- KIDNEY_TOTAL [2]: 1.7 g
- LIVER [2]: 8.1 g
- ALT [2]: 44.8 IU/L
- AST [2]: 73.4 IU/L
- CRE [2]: 0.2 mg/dL
- Ca [2]: 10.9 mg/dL
- Cl [2]: 106.6 meq/L
- DBIL [2]: 0.014 mg/dL
- GLC [2]: 182.8 mg/dL
- K [2]: 4.2 meq/L
- LDH [2]: 54.4 IU/L
- Na [2]: 142.8 meq/L
- PL [2]: 153.6 mg/dL
- RALB [2]: 2.6 g/dL
- TBIL [2]: 0.034 mg/dL
- TC [2]: 86.2 mg/dL
- TG [2]: 47.2 mg/dL
- TP [2]: 5.3 g/dL
- gamma-GTP [2]: 1.2 IU/L
- TERMINAL_BW [3]: 182 g
- APTT [3]: 17.3 s
- Bas [3]: 0.2%
- Eos [3]: 0.8%
- Fbg [3]: 305.8 mg/dL
- Hb [3]: 12.9 g/dL
- Ht [3]: 40.1%
- Lym [3]: 78.6%
- MCHC [3]: 32.2%
- MCV [3]: 67 fL
- Mono [3]: 2.6%
- PT [3]: 14.8 s
- Plat [3]: 121.1 x10_4/uL
- RBC [3]: 599.4 x10_4/ul
- WBC [3]: 83.9 x10_2/uL
- KIDNEY_L [3]: 0.9 g
- KIDNEY_R [3]: 0.9 g
- KIDNEY_TOTAL [3]: 1.7 g
- LIVER [3]: 7.9 g
- ALT [3]: 41.8 IU/L
- AST [3]: 71.8 IU/L
- CRE [3]: 0.1 mg/dL
- Ca [3]: 10.7 mg/dL
- Cl [3]: 105.6 meq/L
- DBIL [3]: 0.012 mg/dL
- GLC [3]: 171.6 mg/dL
- K [3]: 4.1 meq/L
- LDH [3]: 50.8 IU/L
- Na [3]: 143 meq/L
- PL [3]: 150.4 mg/dL
- RALB [3]: 2.5 g/dL
- TBIL [3]: 0.028 mg/dL
- TC [3]: 82 mg/dL
- TG [3]: 45.8 mg/dL
- TP [3]: 5.2 g/dL
- gamma-GTP [3]: 1 IU/L
- TERMINAL_BW [4]: 196.9 g
- Bas [4]: 0%
- Eos [4]: 1%
- Fbg [4]: 271.8 mg/dL
- Hb [4]: 13 g/dL
- Ht [4]: 39.6%
- Lym [4]: 75.6%
- MCHC [4]: 32.9%
- MCV [4]: 64.6 fL
- Mono [4]: 2.8%
- PT [4]: 14.8 s
- Plat [4]: 120 x10_4/uL
- RBC [4]: 614.2 x10_4/ul
- WBC [4]: 85.8 x10_2/uL
- KIDNEY_L [4]: 0.9 g
- KIDNEY_R [4]: 0.9 g
- KIDNEY_TOTAL [4]: 1.8 g
- LIVER [4]: 9.5 g
- ALT [4]: 51 IU/L
- AST [4]: 76.2 IU/L
- CRE [4]: 0.2 mg/dL
- Ca [4]: 11.2 mg/dL
- Cl [4]: 106.8 meq/L
- DBIL [4]: 0.018 mg/dL
- GLC [4]: 173.6 mg/dL
- K [4]: 4.2 meq/L
- LDH [4]: 82.4 IU/L
- Na [4]: 144.4 meq/L
- PL [4]: 150.4 mg/dL
- RALB [4]: 2.7 g/dL
- TBIL [4]: 0.022 mg/dL
- TC [4]: 81.2 mg/dL
- TG [4]: 95.8 mg/dL
- TP [4]: 5.5 g/dL
- gamma-GTP [4]: 1.2 IU/L
- TERMINAL_BW [5]: 189.3 g
- Bas [5]: 0%
- Eos [5]: 0.4%
- Fbg [5]: 277.6 mg/dL
- Hb [5]: 12.7 g/dL
- Ht [5]: 39.2%
- Lym [5]: 69.6%
- MCHC [5]: 32.5%
- MCV [5]: 65.1 fL
- Mono [5]: 4.4%
- PT [5]: 14.6 s
- Plat [5]: 121.1 x10_4/uL
- RBC [5]: 601.6 x10_4/ul
- WBC [5]: 95.2 x10_2/uL
- KIDNEY_L [5]: 0.8 g
- KIDNEY_R [5]: 0.9 g
- KIDNEY_TOTAL [5]: 1.7 g
- LIVER [5]: 8.3 g
- ALT [5]: 52.6 IU/L
- AST [5]: 92 IU/L
- CRE [5]: 0.2 mg/dL
- Ca [5]: 10.7 mg/dL
- Cl [5]: 103.8 meq/L
- DBIL [5]: 0.008 mg/dL
- GLC [5]: 193 mg/dL
- K [5]: 4.4 meq/L
- LDH [5]: 64.4 IU/L
- Na [5]: 140.8 meq/L
- PL [5]: 137.2 mg/dL
- RALB [5]: 2.5 g/dL
- TBIL [5]: 0.028 mg/dL
- TC [5]: 76.8 mg/dL
- TG [5]: 48.4 mg/dL
- TP [5]: 5.2 g/dL
- gamma-GTP [5]: 1 IU/L
- TERMINAL_BW [6]: 185.7 g
- APTT [6]: 17.5 s
- Bas [6]: 0.4%
- Eos [6]: 0.8%
- Fbg [6]: 311 mg/dL
- Hb [6]: 13.3 g/dL
- Ht [6]: 41.5%
- Lym [6]: 77.6%
- MCHC [6]: 32.1%
- MCV [6]: 66 fL
- Mono [6]: 3.2%
- PT [6]: 14.7 s
- Plat [6]: 126.6 x10_4/uL
- RBC [6]: 629 x10_4/ul
- WBC [6]: 95.6 x10_2/uL
- KIDNEY_L [6]: 0.8 g
- KIDNEY_R [6]: 0.8 g
- KIDNEY_TOTAL [6]: 1.7 g
- LIVER [6]: 7.8 g
- ALT [6]: 45 IU/L
- AST [6]: 74.6 IU/L
- CRE [6]: 0.2 mg/dL
- Ca [6]: 10.7 mg/dL
- DBIL [6]: 0.008 mg/dL
- GLC [6]: 176 mg/dL
- K [6]: 4 meq/L
- LDH [6]: 59.2 IU/L
- Na [6]: 143 meq/L
- PL [6]: 158.8 mg/dL
- RALB [6]: 2.5 g/dL
- TBIL [6]: 0.032 mg/dL
- TC [6]: 91.8 mg/dL
- TG [6]: 40.6 mg/dL
- TP [6]: 5.2 g/dL
- gamma-GTP [6]: 1 IU/L
- TERMINAL_BW [7]: 185.3 g
- Bas [7]: 0%
- Eos [7]: 0.8%
- Fbg [7]: 316.2 mg/dL
- Hb [7]: 12.6 g/dL
- Ht [7]: 38.6%
- Lym [7]: 74.8%
- MCHC [7]: 32.6%
- MCV [7]: 62.9 fL
- Mono [7]: 2.8%
- PT [7]: 14.7 s
- Plat [7]: 132.9 x10_4/uL
- RBC [7]: 613 x10_4/ul
- WBC [7]: 97 x10_2/uL
- KIDNEY_L [7]: 0.8 g
- KIDNEY_R [7]: 0.8 g
- KIDNEY_TOTAL [7]: 1.6 g
- LIVER [7]: 7.2 g
- ALP [7]: 1763.8 IU/L
- ALT [7]: 48.4 IU/L
- AST [7]: 81.2 IU/L
- CRE [7]: 0.2 mg/dL
- Ca [7]: 10.4 mg/dL
- Cl [7]: 105.8 meq/L
- DBIL [7]: 0.01 mg/dL
- GLC [7]: 170.2 mg/dL
- K [7]: 4.2 meq/L
- LDH [7]: 53.6 IU/L
- Na [7]: 142.4 meq/L
- PL [7]: 144.8 mg/dL
- RALB [7]: 2.6 g/dL
- TBIL [7]: 0.026 mg/dL
- TC [7]: 78.4 mg/dL
- TG [7]: 59 mg/dL
- TP [7]: 5.3 g/dL
- gamma-GTP [7]: 1.2 IU/L
- TERMINAL_BW [8]: 195.5 g
- Bas [8]: 0%
- Eos [8]: 0.8%
- Fbg [8]: 299 mg/dL
- Ht [8]: 39.9%
- Lym [8]: 76.6%
- MCHC [8]: 33%
- MCV [8]: 64.4 fL
- Mono [8]: 4.4%
- PT [8]: 15 s
- Plat [8]: 125.7 x10_4/uL
- RBC [8]: 621.2 x10_4/ul
- WBC [8]: 83.8 x10_2/uL
- KIDNEY_L [8]: 0.9 g
- KIDNEY_R [8]: 0.9 g
- KIDNEY_TOTAL [8]: 1.7 g
- LIVER [8]: 9.3 g
- ALP [8]: 2052.4 IU/L
- ALT [8]: 41.2 IU/L
- AST [8]: 66.6 IU/L
- CRE [8]: 0.2 mg/dL
- Ca [8]: 11.1 mg/dL
- Cl [8]: 107.6 meq/L
- DBIL [8]: 0.02 mg/dL
- GLC [8]: 168.6 mg/dL
- K [8]: 4.3 meq/L
- LDH [8]: 87.2 IU/L
- Na [8]: 144 meq/L
- PL [8]: 144.8 mg/dL
- RALB [8]: 2.7 g/dL
- TBIL [8]: 0.018 mg/dL
- TC [8]: 77.4 mg/dL
- TG [8]: 108.6 mg/dL
- TP [8]: 5.6 g/dL
- gamma-GTP [8]: 1 IU/L
